The values below are quoted from earlier work in patent US20260265370A1, “COMBINATION THERAPIES INVOLVING CLAUDIN 18.2 ANTAGONISTS FOR TREATMENT OF CANCER” (SUZHOU TRANSCENTA THERAPEUTICS CO., LTD., priority 2023, published 2026).

Where two headings read alike, the source gives them in different places.

In data set [1] the test system is unresectable advanced or recurrent gastric cancer. Conditions: cited from earlier work.
Data set [2] has as its system CLDN18.2+/HER2− locally advanced or metastatic gastric or gastroesophageal junction (mG/GEJ) adenocarcinoma. The note with it: cited from earlier work; for ORR: patients with measurable disease.
For another data set, the system named is advanced GC/GEJ cancer. The note with it: cited from earlier work.
[3] abbreviates: CLDN18.2 ≥75% tumor cell staining 2+ or 3+.
Where [4] appears, read: zolbetuximab+CAPOX vs PBO+CAPOX.

Regarding Nivolumab: PD-1 checkpoint inhibitor, in data set [1] (in vivo), the ORR is listed as 11%. Further, in data set [1] (n=330), the “12-month OS rate” value is listed as 26.2%. Also, the “overall survival (OS)” value in data set [1] (progressed after two or more chemotherapy regimens) is 5.26 months. For the same substance, the “HR of OS” value in data set [1] (vs placebo) is 0.63.

As to “Zolbetuximab + CAPOX: GLOW arm: zolbetuximab plus capecitabine and oxaliplatin”, in data set [2] (setting [3]), the mDoR was 6.28 months, the mPFS is recorded as 8.21 months and the ORR is recorded as 53.8%. For the same substance, the ORR in data set [2] (CLDN18.2 ≥75% tumor cell staining 2+ or 3+, listed as Zolbetuximab+CAPOX) is given as 53.8%. In data set [2] (CLDN18.2 ≥75% tumor cell staining 2+ or 3+, listed as zolbetuximab+CAPOX), the ORR is reported as 53.8%. In data set [2] (in vivo), the OS median was 14.39 mo, the TEAE decreased appetite is listed as 41.3%, the TEAE nausea is 68.5% and the TEAE vomiting was 66.1%. In data set [2] (in vivo), the “drug-related TEAEs leading to death” value is 2.4%, the “grade ≥3 TEAEs” value is listed as 72.8% and the “serious TEAEs” value is given as 47.2%. In data set [2] (setting [4]), the “HR of OS” value is listed as 0.771 and the “HR of PFS” value is listed as 0.687.

On to “Zolbetuximab: first-in-class, chimeric monoclonal antibody specific to a CLDN18.2 epitope”, for which the “tolerability” value in the data set on advanced GC/GEJ cancer (in vivo) is “well-tolerated”. In addition, the ORR in the data set on advanced GC/GEJ cancer (phase IIa monotherapy, strong CLDN18.2 expression, ≥2+ staining intensity in 70% of tumor cells) was 14%.
